Experimental data from the NIST ThermoML archive (doi:10.1016/j.jct.2008.05.014).

Experiment: xn = mol fraction of the nth substance listed
Settings: Liquid; for speed of sound: Pulse-echo method

CCCCCCCCCCCC [dodecane] + CCCCCCC
Settings | mass density [kg/m3] | speed of sound [m/s]
313.11 K, 75990 kPa, x2 = 0.1014 | – | 1575.8
313.11 K, 75990 kPa, x2 = 0.3007 | – | 1560.1
313.11 K, 75990 kPa, x2 = 0.5003 | – | 1544.4
313.11 K, 75990 kPa, x2 = 0.7007 | – | 1524.1
313.11 K, 91180 kPa, x2 = 0.1014 | – | 1630.7
313.11 K, 91180 kPa, x2 = 0.3007 | – | 1616.4
313.11 K, 91180 kPa, x2 = 0.5003 | – | 1601.4
313.11 K, 101320 kPa, x2 = 0.3007 | – | 1651.1
313.11 K, 101320 kPa, x2 = 0.5003 | – | 1637
313.11 K, 101320 kPa, x2 = 0.7007 | – | 1618.5
313.12 K, 101 kPa, x2 = 0.8 | – | 1108.9
313.12 K, 15200 kPa, x2 = 0.5003 | – | 1261.2
313.12 K, 30390 kPa, x2 = 0.8496 | – | 1297.9
313.12 K, 45590 kPa, x2 = 0.3007 | – | 1435.5
313.12 K, 45590 kPa, x2 = 0.8496 | – | 1375.3
313.12 K, 60790 kPa, x2 = 0.3007 | – | 1500.5
313.12 K, 60790 kPa, x2 = 0.8496 | – | 1444.9
313.12 K, 75990 kPa, x2 = 0.8496 | – | 1508.4
313.12 K, 91180 kPa, x2 = 0.8496 | – | 1566.8
313.12 K, 101320 kPa, x2 = 0.8496 | – | 1604
313.13 K, 101 kPa, x2 = 0.2001 | – | 1199.7
313.13 K, 101 kPa, x2 = 0.5002 | – | 1159.9
313.13 K, 15200 kPa, x2 = 0.8496 | – | 1209.3
313.14 K, 101 kPa, x2 = 0.1007 | – | 1210.7
313.15 K, 101 kPa, x2 = 0 | 734.369 | –
313.15 K, 101 kPa, x2 = 0.0991 | 730.129 | –
313.15 K, 101 kPa, x2 = 0.2008 | 725.372 | –
313.15 K, 101 kPa, x2 = 0.2998 | 720.306 | –
313.15 K, 101 kPa, x2 = 0.3996 | 714.763 | –
313.15 K, 101 kPa, x2 = 0.5 | 708.645 | –
313.15 K, 101 kPa, x2 = 0.6 | 701.955 | –
313.15 K, 101 kPa, x2 = 0.7005 | 694.545 | –
313.15 K, 101 kPa, x2 = 0.7995 | 686.378 | –
313.15 K, 101 kPa, x2 = 0.8486 | 682.014 | –
313.15 K, 101 kPa, x2 = 0.8988 | 677.238 | –
313.15 K, 101 kPa, x2 = 0.9498 | 672.083 | –
313.21 K, 15200 kPa, x2 = 0 | – | 1313.4
313.21 K, 30390 kPa, x2 = 0 | – | 1391.1
313.21 K, 45590 kPa, x2 = 0 | – | 1460.8
313.21 K, 60790 kPa, x2 = 0 | – | 1524.1
313.21 K, 75990 kPa, x2 = 0 | – | 1582.5
313.21 K, 91180 kPa, x2 = 0 | – | 1637.3
313.21 K, 101320 kPa, x2 = 0 | – | 1671.3
318.15 K, 101 kPa, x2 = 0 | 730.715 | –
318.15 K, 101 kPa, x2 = 0.0991 | 726.449 | –
318.15 K, 101 kPa, x2 = 0.2008 | 721.654 | –
318.15 K, 101 kPa, x2 = 0.2998 | 716.534 | –
318.15 K, 101 kPa, x2 = 0.3996 | 710.938 | –
318.15 K, 101 kPa, x2 = 0.5 | 704.756 | –
318.15 K, 101 kPa, x2 = 0.6 | 698 | –
318.15 K, 101 kPa, x2 = 0.7005 | 690.511 | –
318.15 K, 101 kPa, x2 = 0.7995 | 682.231 | –
318.15 K, 101 kPa, x2 = 0.8486 | 677.842 | –
318.15 K, 101 kPa, x2 = 0.8988 | 673.004 | –
318.15 K, 101 kPa, x2 = 0.9498 | 667.78 | –
318.17 K, 30390 kPa, x2 = 0.9391 | – | 1264.9
318.17 K, 60790 kPa, x2 = 0.9391 | – | 1416.7
318.17 K, 75990 kPa, x2 = 0.9391 | – | 1481.5
318.17 K, 91180 kPa, x2 = 0.9391 | – | 1540.9
318.17 K, 101320 kPa, x2 = 0.9391 | – | 1578.8
318.18 K, 15200 kPa, x2 = 0.9391 | – | 1172.9
318.18 K, 30390 kPa, x2 = 0.4999 | – | 1327.8
318.18 K, 45590 kPa, x2 = 0.4999 | – | 1402.2
318.18 K, 45590 kPa, x2 = 0.9391 | – | 1345
318.18 K, 60790 kPa, x2 = 0.4999 | – | 1469.5
318.18 K, 75990 kPa, x2 = 0.4999 | – | 1530.5
318.18 K, 75990 kPa, x2 = 0.97 | – | 1479.1
318.18 K, 91180 kPa, x2 = 0.4999 | – | 1587.8
318.18 K, 101320 kPa, x2 = 0.4999 | – | 1623.8
318.19 K, 15200 kPa, x2 = 0.4999 | – | 1243.6
318.19 K, 15200 kPa, x2 = 0.97 | – | 1168.4
318.19 K, 30390 kPa, x2 = 0.97 | – | 1261.1
318.19 K, 45590 kPa, x2 = 0.8496 | – | 1359.9
318.19 K, 45590 kPa, x2 = 0.97 | – | 1341.7
318.19 K, 60790 kPa, x2 = 0.97 | – | 1413.8
318.19 K, 91180 kPa, x2 = 0.97 | – | 1538.7
318.19 K, 101320 kPa, x2 = 0.1014 | – | 1652.2
318.19 K, 101320 kPa, x2 = 0.97 | – | 1576.7
318.2 K, 15200 kPa, x2 = 0.1014 | – | 1286.7
318.2 K, 15200 kPa, x2 = 0.8496 | – | 1191.3
318.2 K, 30390 kPa, x2 = 0.1014 | – | 1366.6
318.2 K, 30390 kPa, x2 = 0.8496 | – | 1281.3
318.2 K, 45590 kPa, x2 = 0.1014 | – | 1437.8
318.2 K, 60790 kPa, x2 = 0.1014 | – | 1502.5
318.2 K, 60790 kPa, x2 = 0.8496 | – | 1430.4
318.2 K, 75990 kPa, x2 = 0.8496 | – | 1494.5
318.2 K, 76190 kPa, x2 = 0.1014 | – | 1562.6
318.2 K, 91180 kPa, x2 = 0.1014 | – | 1617.7
318.2 K, 91180 kPa, x2 = 0.8496 | – | 1553.3
318.2 K, 101320 kPa, x2 = 0.8496 | – | 1590.8
318.28 K, 101320 kPa, x2 = 0.5003 | – | 1623.8
318.29 K, 15200 kPa, x2 = 0 | – | 1296.2
318.29 K, 15200 kPa, x2 = 0.3007 | – | 1265.2
318.29 K, 15200 kPa, x2 = 0.5003 | – | 1243.2
318.29 K, 30390 kPa, x2 = 0 | – | 1375
318.29 K, 30390 kPa, x2 = 0.5003 | – | 1327.5
318.29 K, 45590 kPa, x2 = 0 | – | 1445.5
318.29 K, 45590 kPa, x2 = 0.3007 | – | 1420.2
318.29 K, 45590 kPa, x2 = 0.5003 | – | 1401.9
318.29 K, 60790 kPa, x2 = 0 | – | 1509.7
318.29 K, 60790 kPa, x2 = 0.3007 | – | 1486
318.29 K, 60790 kPa, x2 = 0.5003 | – | 1469.1
318.29 K, 75990 kPa, x2 = 0.3007 | – | 1546.1
318.29 K, 75990 kPa, x2 = 0.5003 | – | 1530.4
318.29 K, 91180 kPa, x2 = 0 | – | 1624.1
318.29 K, 91180 kPa, x2 = 0.3007 | – | 1602.7
318.29 K, 91180 kPa, x2 = 0.5003 | – | 1587.6
318.29 K, 101320 kPa, x2 = 0 | – | 1658.5
318.29 K, 101320 kPa, x2 = 0.3007 | – | 1638.2
318.3 K, 30390 kPa, x2 = 0.3007 | – | 1347.3
318.3 K, 75990 kPa, x2 = 0 | – | 1568.8
318.3 K, 75990 kPa, x2 = 0.7007 | – | 1510
318.3 K, 101320 kPa, x2 = 0.7007 | – | 1605
318.31 K, 15200 kPa, x2 = 0.7007 | – | 1213.9
318.31 K, 30390 kPa, x2 = 0.7007 | – | 1301.3
318.31 K, 45590 kPa, x2 = 0.7007 | – | 1378
318.31 K, 60790 kPa, x2 = 0.7007 | – | 1447.1
318.31 K, 91180 kPa, x2 = 0.7007 | – | 1568.1
318.37 K, 101 kPa, x2 = 0.6 | – | 1123.2
318.38 K, 101 kPa, x2 = 0.7002 | – | 1105.9
318.38 K, 101 kPa, x2 = 0.8995 | – | 1066.3
318.39 K, 101 kPa, x2 = 0 | – | 1200.9
318.39 K, 101 kPa, x2 = 0.3002 | – | 1167
318.39 K, 101 kPa, x2 = 0.3996 | – | 1153.6
318.4 K, 101 kPa, x2 = 0.1007 | – | 1190.5
318.4 K, 101 kPa, x2 = 0.8 | – | 1087
318.41 K, 101 kPa, x2 = 0.2001 | – | 1179.3
318.41 K, 101 kPa, x2 = 0.5002 | – | 1138.9
